The values that follow are results of earlier work, collected in patent US12502339B2, “Foam compositions” (The Procter & Gamble Company, priority 2021, dated 2025).

For this data set the following is noted: in water.
Regarding `CCCC` [Butane], the “Water solubility at 20° C. (weight percent)” value is on record as under 0.01% weight percent.

Turning to `O=C=O` [Carbon dioxide], the “Water solubility at 20° C. (weight percent)” value is given as 0.8% weight percent.

Regarding `COC` [Dimethyl ether], the “Water solubility at 20° C. (weight percent)” value is listed as 7% weight percent.

Consider `[He]` [Helium], for which the “Water solubility at 20° C. (weight percent)” value is recorded as under 0.01 weight percent.

As to `CC(C)C` [Isobutane], the “Water solubility at 20° C. (weight percent)” value is under 0.01% weight percent.

`[N-]=[N+]=O` [Nitrous oxide]: the “Water solubility at 20° C. (weight percent)” value was 0.12 weight percent.
